US20230265099A1, “SIK INHIBITORS AND METHODS OF USE THEREOF” (SOLTEGO, INC., priority 2020, published 2023)
“Also recorded” adds a separate entry of the source.

Legend:
[1] = test system: reconstituted melanized human epidermis (NHEKs and NHEMs-MP melanocytes); assay: Melanin content from Fontana-Masson stained sections of reconstituted melanized human epidermis; type: cell-based; conditions: for melanin content (Fontana-Masson stained sections): % relative to DMSO 0.005%
Experimental: Based on the results of dose determination studies, 0.3 μg/ml, 0.01 μg/ml and 0.0033 μg/ml doses of SLT-008 were selected for further application in a culture medium of reconstituted melanized human epidermis. The pigmentation effect studies were carried out on epidermis reconstituted with NHEKs (Normal human epidermal keratinocytes, Lonza 00192906) isolated from foreskin of 3 neonatal Caucasian donors and NHEMs-MP melanocytes.
The tissues were cultured at the air-liquid interface in Epilife medium (Fisher Scientific, MEPI500CA) containing specific supplements (with among others Human Keratinocytes Growth Factors, Fisher Scientific S0015 or S001K) and antibiotics (Gentamycin, Fisher Scientific, 15710049). They were maintained in a humid atmosphere at 37° C. with 5% CO2.
Melanocytes were co-cultured with reconstructed epidermis and cultivated at the air-liquid interface during 14 days in culture medium in a humid atmosphere at 37° C. with CO2 5%. SLT-008 was applied in the culture medium at 3 concentrations, during 10 days, from day 4 to day 14 after placement at the air/liquid interface (n=6), with 5 medium refreshes (at day 7, 8, 9, 10 and 11). In order to allow pigmentation of the epidermis, the concentration in BPE (bovine pituitary extract) in culture medium was adapted during the treatments. DMSO at 0.005%, used for the compounds solubilization was used as reference control condition. IBMX at 150 μM and forskolin at 3.33 μM were used as pro-pigmentation reference compounds to validate the experiment. An additional DMSO control at 0.05% corresponding to the solvent of the reference compounds was added as well in the experiment.
At the end of treatments (day 14), a morphology analysis was performed. The epidermis pigmentation was quantified after solvable extraction and quantified through Fontana Masson staining of histologic sections. 6 μm sections of epidermis embedded in paraffin were prepared and stained with Fontana Masson reagents. Fontana Masson staining specifically stains melanin within the epidermis. In order to visualize the epidermis in addition to the melanin, a counterstaining with hemalum/eosin was performed as well. Tissue section staining was performed in three series with one set for each test compound. Slides with sections of epidermis treated with DMSO at 0.005% were put in each set for Fontana Masson staining in order to compare the effects of the SLT-008.
Melanin deposition on 6 μm paraffin sections of each epidermis was stained by Fontana-Masson reagents (VWR-VWRK641295, VWRK641311; Klinipath-641215). […]
For the melanin quantification, 3 pictures of each epidermis were taken and analyzed by using the Leica QWin3 software. […]
Melanin content was determined from Fontana-Masson stained sections (% relative to DMSO 0.005%). […]

[2] = test system: melanized reconstructed human epidermis; assay: LDH release assay on melanized reconstructed human epidermis; type: cell-based
Experimental: Quantification of lactate dehydrogenase (LDH) release from melanized tissue was performed at mid-treatment and at the end of treatment with the SLT-008 to ensure that the selected doses were not cytotoxic for the melanized reconstructed human epidermis. The release of LDH by the culture model was assessed after 5 and 10 days of treatments with the Cytotoxicity Detection KitPLUS (Roche-04744926001) according to the manufacturer's instructions. Briefly, culture supernatants were collected and mixed with LDH detection reactants in 96-well plates for 30 min before measuring optical density at 490 nm with a reference wavelength of 600 nm using a spectrophotometer (GloMax-Promega). This was performed in triplicates of cultures (n=3). […] The effect of these concentrations was thus studied on the tissue pigmentation (FIG. 5).

[3] = test system: apoptotic cells in the epidermis of human skin explants; assay: Stripping-induced apoptosis DNA protection study, TUNEL assay on skin explants; type: cell-based; conditions: 0.9% in absolute ethanol, after tape stripping, Day 11, significant
From the text: The aim of this study was to perform complementary immunostaining of TUNEL (apoptotic cell marker).
Histological processing: 5-μm-thick sections were made using a Leica RM 2125 Minot-type microtome, and the sections were mounted on Superfrost® histological glass slides. The microscopical observations were realized using a Leica DMLB, an Olympus BX43 or BX63 microscope. Pictures were digitized with a numeric DP72 or DP74 Olympus camera with CellSens storing software.
The staining was semi-quantified by image analysis.
Image analysis method: The images analyses was performed on all the images of the selected batch using CellSens software. Stained surfaces comparisons
The stained surface percentage (Surf %) for the treatment is compared to the untreated condition=>S vs T; SP vs S.

[4] = test system: Primary human epidermal keratinocytes (hEK) cocultured with human epidermal melanocytes; assay: Topical application on keratinocyte/melanocyte coculture skin model, Fontana Masson staining; type: cell-based; conditions: single topical application
Experimental: Primary human epidermal keratinocytes (hEK) were seeded onto suitable carrier matrices and cocultured with human epidermal melanocytes. SLT-8 was solubilized in PEG/Ethanol/Transcutol® at 0.3 mM, 1 mM and 3 mM and applied topically using a mesh to the surface of the models and removed after 4 hours. Test compounds were applied once daily over a period of 4 days. Untreated models and models treated with the vehicle only served as controls. UV irradiated models were used as positive controls. Fontana Masson staining was conducted to visualize pigmentation effects. Fontana-Masson staining is routinely used to visualize argentaffin substances such as melanin, argentaffin granules and some neurosecretory granules. Melanin is a nonlipid, non-hematogenous pigment. It is a brown-black pigment present normally in the hair, skin, retina, iris, and certain parts of the central nervous system. Argentaffin granules are found in carcinoid tumors. The argentaffin cell granules or melanin stain black. Nuclei stain pink-red. The cytoplasm stains pale pink.

[5] = test system: reconstituted melanized epidermis; assay: Hematoxylin/eosin (H/E) morphology of reconstituted melanized epidermis; type: cell-based, human; conditions: 3 selected doses (0.3, 0.01, 0.0033 μg/ml) in culture medium
Experimental: Next, absence of toxicity of the three doses was evaluated in reconstituted melanized epidermis by hematoxylin/eosin (H/E) staining of histologic sections.
At the end of the treatments with the test compounds, 3 tissues per dose (n=3) were fixed in 4% formaldehyde, dehydrated and paraffin embedded. Sections of 6 μm of epidermis were stained with eosin and hematoxylin (H/E). Slides were mounted with specific medium and examined with a Leica DM2000 photomicroscope coupled to a digital camera (Zeiss).

reconstructed epidermis = assay: Melanin content by chemical (solvable) extraction of reconstructed epidermis; type: cell-based, human; conditions: applied at 1 and 0.1 μg/ml and more so at 0.3 μg/ml
Experimental: Using similar methods described previously in this Example, the experiments were repeated. At the end of these treatments, tissues (n=3) were removed from their inserts and immerged in a solvable extraction solution (Perkin Elmer-NJTSRN8010060) and heated at 80° C. for 1 h. The optical density of the supernatants was measured at 490 nm with a spectrophotometer (GloMax-Promega) and the melanin content was determined by comparison with a standard curve of synthetic melanin (Sigma-M8631)

[6] = test system: human living skin explants; assay: Pigmentation activity on human living skin explants with stripping; type: cell-based
Experimental: The pigmentation activity of SLT-008 at two concentrations was evaluated on skin using human living skin explants with stripping.
Human skin explants of an average diameter of 11 mm (±1 mm) were prepared on an abdominoplasty from a person with a III phototype. The explants were kept alive in BEM culture medium (BIO-EC's Explants Medium) at 37° C. in a humid, 5%-CO2 atmosphere. The study was performed on human skin tissue, obtained from surgical residues in accord with the Declaration of Helsinki and the article L.1243-4 of the French Public Health Code.
On day 0, the explants of the batches “S” were stripped 5 times using scotch 3M to remove some stratum corneum layers to facilitate the penetration of the tested products. The excipient and the tested products were applied topically on the basis of 2 μl per explant (2 mg/cm^2) and spread using a small spatula on day 0 (D0, after the stripping), D1, D4, D6 and D8.
The culture medium was half renewed (1 ml per well) on D0, D1, D4, D6 and D8. On D0, D1, D4, D5, D6, D7 and D8, the culture media of the irradiated explants (TUV) were replaced by HBSS (Hank's Balanced Saline Solution; 1 ml per explant). Then, the explants of the “TUV” batch were irradiated using a UV simulator Vibert Lourmat RMX 3W with a dose of 2.25 J/cm2 of UVA corresponding to 0.5 MED (minimal erythemal dose) for a phototype II donor. […]

SIK3(h) = SIK3(h) (Homo sapiens, UniProt Q9Y2K2); assay: Salt Induced Kinase inhibition, radiometric [γ-33P]-ATP filter assay, SIK3; type: biochemical
Sequence of SIK3(h) (Q9Y2K2 whole entry): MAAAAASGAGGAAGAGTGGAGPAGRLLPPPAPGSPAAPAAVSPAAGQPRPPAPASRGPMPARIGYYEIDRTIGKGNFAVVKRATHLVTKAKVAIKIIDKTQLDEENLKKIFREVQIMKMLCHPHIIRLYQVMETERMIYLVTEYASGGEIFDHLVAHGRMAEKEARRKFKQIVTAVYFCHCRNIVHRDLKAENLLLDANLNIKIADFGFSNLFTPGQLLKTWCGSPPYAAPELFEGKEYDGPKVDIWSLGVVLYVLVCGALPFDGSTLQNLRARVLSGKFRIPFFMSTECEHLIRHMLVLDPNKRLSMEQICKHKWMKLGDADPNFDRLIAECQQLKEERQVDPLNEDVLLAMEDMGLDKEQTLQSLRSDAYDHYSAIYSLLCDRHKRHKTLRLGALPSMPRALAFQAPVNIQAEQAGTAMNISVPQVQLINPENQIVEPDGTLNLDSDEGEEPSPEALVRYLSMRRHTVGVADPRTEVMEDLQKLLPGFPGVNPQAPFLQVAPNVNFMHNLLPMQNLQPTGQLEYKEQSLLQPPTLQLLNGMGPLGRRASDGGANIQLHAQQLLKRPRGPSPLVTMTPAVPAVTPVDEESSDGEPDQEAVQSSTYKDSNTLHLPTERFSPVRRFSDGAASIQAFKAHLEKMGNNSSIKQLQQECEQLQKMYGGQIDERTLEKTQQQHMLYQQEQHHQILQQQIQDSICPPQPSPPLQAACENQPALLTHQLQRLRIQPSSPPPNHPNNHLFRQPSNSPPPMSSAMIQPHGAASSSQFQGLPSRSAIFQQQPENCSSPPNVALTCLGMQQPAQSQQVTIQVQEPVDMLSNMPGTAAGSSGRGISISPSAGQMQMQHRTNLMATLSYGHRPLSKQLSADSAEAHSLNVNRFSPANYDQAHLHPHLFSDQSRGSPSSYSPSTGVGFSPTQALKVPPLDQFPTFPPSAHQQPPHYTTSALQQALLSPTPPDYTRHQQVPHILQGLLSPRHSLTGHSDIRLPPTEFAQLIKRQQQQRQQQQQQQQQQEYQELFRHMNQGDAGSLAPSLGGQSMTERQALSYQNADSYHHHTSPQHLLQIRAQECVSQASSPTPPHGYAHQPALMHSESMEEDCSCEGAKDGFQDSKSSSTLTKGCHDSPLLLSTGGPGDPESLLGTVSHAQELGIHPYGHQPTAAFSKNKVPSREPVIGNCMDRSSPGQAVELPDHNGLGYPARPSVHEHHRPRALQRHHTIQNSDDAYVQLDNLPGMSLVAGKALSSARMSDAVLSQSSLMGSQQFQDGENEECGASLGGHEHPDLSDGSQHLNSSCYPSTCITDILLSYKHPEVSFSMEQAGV

SMILES | pigmentation (Fontana-Masson) ([1]; positive controls: forskolin 3.33 μM, IBMX 150 μM, vs DMSO 0.05%) | LDH release from tissues ([2]; 0.3 μg/ml, after 10 days of treatment, without reaching the set cytotoxic level) | tissue integrity (LDH release) ([2]; application for 10 days) | decrease of apoptotic cell numbers (TUNEL stained surface) [3] | melanin pigmentation (Fontana Masson staining) ([4]; 1 mM in PEG/Ethanol/Transcutol) | melanin pigmentation (Fontana Masson staining) ([4]; 3 mM in PEG/Ethanol/Transcutol) | melanin transfer to keratinocytes and nuclear capping ([4]; 3 mM) | morphologic alteration (H/E staining) [5] | melanin content by chemical extraction (reconstructed epidermis) | cell viability ([6]; 0.5% and 0.9% topical, compared to the stripped batch) | melanin increase ([6]; 0.9% dose, topical, stripped explants, significant (p<0.1)) | melanin content (Fontana-Masson stained sections) ([1]; 0.011 μg/ml) | pigmentation / melanin content (Fontana-Masson) ([1]; 0.3 μg/ml vs DMSO 0.005%) | melanin content (Fontana-Masson stained sections) ([1]; 0.3 μg/ml) | IC50 (SIK3(h); Estimated IC50 Values, SIK3(h), ATP 45 μM) | IC50 (SIK3(h); SIK3)
CC(C)Cn1c(=O)n(C)c(=O)c2[nH]cnc21 [IBMX, reference compound] | increased |  |  |  |  |  |  |  |  |  |  |  |  |  |  | 
Cc1cccc(C)c1N1Cc2cnc(Nc3ccc(N4CCN(C)CC4)cc3)nc2N(C23CC4CC(CC(C4)C2)C3)C1=O [SLT-008, 1-((3s,5s,7s)-adamantan-1-yl)-3-(2,6-dimethylphenyl)-7-((4-(4-methylpiperazin-1-yl)phenyl)amino)-3,4-dihydropyrimido[4,5-d]pyrimidin-2(1H)-one] |  | Slight and significant increase | did not induce relevant alteration of the tissue integrity | 97% | induced melanin pigment dots at the stratum lucidum level | induced melanin pigment dots at the stratum lucidum level | induced melanin transfer to keratinocytes and nuclear capping was observed | no morphologic alteration | increased, with a dose effect | no modification of cell viability | 36% | 125.6+/−15.4% | significantly increased; also recorded: significant increase | 129+/−5.7% | > 20 nM | > 20 nM
